# Results: ChEMBL document CHEMBL1201862, “PubChem BioAssay data set” (2004)
#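 Growth conditions: 96-well plates. Treatment: test compound, 48 hours, 5 concentrations. Analysis: linear interpolation between bracketing concentrations; unreached endpoints set to highest concentration. Here, GI50 denotes the concentration required for 50% inhibition of growth.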 Calls of active or inactive are those of the source. No stated cut-off is given here; in the data, active = GI50 up to about 1.1 µM and inactive = higher.
# Assays:
# Test in all cases: NCI tumour cell line growth inhibition, 48 h
# A498 = test system: A498
# CAKI-1 = test system: CAKI-1
# COLO 205 = test system: COLO 205
# HCT-116 = test system: HCT-116
# LOX IMVI = test system: LOX IMVI
# MOLT-4 = test system: MOLT-4
# NCI-H23 = test system: NCI-H23
# NCI/ADR-RES = test system: NCI/ADR-RES
# RPMI-8226 = test system: RPMI-8226
# SF-268 = test system: SF-268
# SF-295 = test system: SF-295
# SK-MEL-28 = test system: SK-MEL-28
# SK-MEL-2 = test system: SK-MEL-2
# SNB-19 = test system: SNB-19
# SNB-75 = test system: SNB-75
# SW-620 = test system: SW-620
# U-251 = test system: U-251
# UACC-257 = test system: UACC-257
# UACC-62 = test system: UACC-62
# TK-10 = test system: TK-10
SMILES,GI50 (A498),GI50 (CAKI-1),GI50 (COLO 205),GI50 (HCT-116),GI50 (LOX IMVI),GI50 (MOLT-4),GI50 (NCI-H23),GI50 (NCI/ADR-RES),GI50 (RPMI-8226),GI50 (SF-268),GI50 (SF-295),GI50 (SK-MEL-28),GI50 (SK-MEL-2),GI50 (SNB-19),GI50 (SNB-75),GI50 (SW-620),GI50 (U-251),GI50 (UACC-257),GI50 (UACC-62),GI50 (TK-10)
COC1OC(=O)[C@H]2O[N+]([O-])=C(C)[C@@H]12 (some centres undefined),> 100 µM (inactive),> 100 µM (inactive),> 100 µM (inactive),> 100 µM (inactive),> 100 µM (inactive),> 100 µM (inactive),> 100 µM (inactive),> 100 µM (inactive),> 100 µM (inactive),> 100 µM (inactive),> 100 µM (inactive),> 100 µM (inactive),> 100 µM (inactive),> 100 µM (inactive),> 100 µM (inactive),> 100 µM (inactive),> 100 µM (inactive),> 100 µM (inactive),> 100 µM (inactive),
O=c1c(-c2ccccc2)c(SCCCN2CCCCC2)n(-c2ccccc2)c(=S)n1-c1ccccc1,15.1 µM (inactive),19.5 µM (inactive),17.6 µM (inactive),,16.3 µM (inactive),18.2 µM (inactive),19 µM (inactive),16.5 µM (inactive),17 µM (inactive),,17.1 µM (inactive),16.9 µM (inactive),15.9 µM (inactive),,15.3 µM (inactive),19.6 µM (inactive),15.6 µM (inactive),16.8 µM (inactive),16.1 µM (inactive),16.9 µM (inactive)
Cc1c2ccncc2cc2c1[nH]c1ccccc12,0.804 µM (active),3.88 µM (inactive),1.64 µM (inactive),2.44 µM (inactive),2.33 µM (inactive),1.98 µM (inactive),4.08 µM (inactive),3.01 µM (inactive),3.07 µM (inactive),8.22 µM (inactive),5.02 µM (inactive),3.85 µM (inactive),7.43 µM (inactive),5.71 µM (inactive),5.26 µM (inactive),2.42 µM (inactive),2.86 µM (inactive),5.55 µM (inactive),5.11 µM (inactive),
NC1CCCCC1.O=P(O)(O)C(CSc1ccccc1)P(=O)(O)O,> 100 µM (inactive),> 100 µM (inactive),> 100 µM (inactive),> 100 µM (inactive),> 100 µM (inactive),> 100 µM (inactive),> 100 µM (inactive),> 100 µM (inactive),> 100 µM (inactive),> 100 µM (inactive),> 100 µM (inactive),> 100 µM (inactive),> 100 µM (inactive),> 100 µM (inactive),> 100 µM (inactive),> 100 µM (inactive),> 100 µM (inactive),> 100 µM (inactive),> 100 µM (inactive),
